Read-outs that look alike come from different tables or passages of the source.
Experiments:
PC-3 cells = assay: Antiproliferative activity, Alamar Blue assay, PC-3 cells; format: cell-based, human; conditions: for PC3 antiproliferative activity pIC50: PC3 cells; for IC50: Homo sapiens, PC-3, PC3 cells, read-out: PC3 antiproliferative activity pIC50 (converted)
Summary of the method: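 PC-3 cells seeded at 4.5×10^3 cells/ml, left to adhere 24 hr, then exposed to compound for 4 days. Resazurin (Alamar Blue) added for a further 24 hrs at 37° C; fluorescence read at 540/590 nm. Viability as % of untreated control, mean of 3 wells; IC50 by probit analysis, reported as pIC50.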

PC3 cells = assay: EB1 Comet (microtubule disruption) assay; format: cell-based, human; conditions: 1 hour treatment; for minimal effective concentration: Homo sapiens, PC-3, 1 h, read-out: EB1 pLAC (converted)
Summary of the method: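 PC3 human prostate cancer cells exposed to compound for 1 h at 37 °C (0.6% DMSO final), methanol-fixed, immunostained for Eb1 and imaged at 20×. Value is the lowest active concentration (LAC): the concentration at which Eb1 foci are absent in at least 50% of treated cells.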

tubulin = assay: Tubulin polymerization assay; format: biochemical; set-up: key: a compound showing 0 to 50% inhibition at 20 μM is reported as score 1; Score 2 compounds are defined as compound showing more than 50% inhibition at 20 μM and less than 50% inhibition at 5 μM; a compound showing more than 50% inhibition at 5 μM is reported as score 3; conditions: tested at 20 μM and 5 μM
Summary of the method: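 Cytoskeleton kit tubulin was run in a 10 µl final volume at 37 °C, with fluorescence read every minute for 1 h. Polymerization was taken as the maximum slope (4-point linear regression) and expressed as % of no-compound control. Compounds were tested at 20 µM, then at 5 µM if inhibition exceeded 50%, and scored by % inhibition.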

IC50 (PC-3 cells) [nM] | SMILES | minimal effective concentration (PC3 cells) [µM] | also measured
– | CCc1cc2ccc(C(C)(C#N)CC3COc4ccccc4O3)cc2[nH]c1=O (single isomer, unassigned) [Compound 47] | – | PC3 antiproliferative activity pIC50 (PC-3 cells): <5; melting point: 176 °C
7940 | CCc1cc2ccc(C(C)(C#N)Cc3cccc(CN(C)C)c3)cc2[nH]c1=O (stereo not drawn) [Compound 7] | 3.16 | –
> 10000 | CCc1cc2ccc(C(C#N)(Cc3ccccc3)CC3CC3)cc2[nH]c1=O (stereo not drawn) [Compound 28] | – | melting point: 212 °C
> 10000 | CC(C#N)(Cc1ccccc1)c1ccc2cc(CO)c(=O)[nH]c2c1 (stereo not drawn) [Compound 40] | – | melting point: 176 °C
158 | CCc1cc2ccc(C(C)(C#N)Cc3nc(OC)cc(OC)n3)cc2[nH]c1=O (stereo not drawn) [Compound 43] | – | melting point: 90 °C
– | CCc1cc2ccc(C(C)(C#N)Cc3ccccc3)cc2[nH]c1=O (stereo not drawn) [Compound 44] | – | melting point: 168 °C
> 10000 | CCc1cc2ccc(C(C)(C#N)Cc3cccc(CN4CCN(C)CC4)c3)cc2[nH]c1=O (stereo not drawn) [Compound 57] | – | –
2000 | CCc1cc2ccc(C(C)(C#N)Cc3cccc(CN4CCOCC4)c3)cc2[nH]c1=O (stereo not drawn) [Compound 58] | 3.16 | –
10000 | CCc1cc2ccc(C(C)(C#N)Cc3cccc(CNC)c3)cc2[nH]c1=O (stereo not drawn) [Compound 59] | 10 | –
7940 | CCc1cc2ccc(C(C)(C#N)Cc3cccc(CNCCOC)c3)cc2[nH]c1=O (stereo not drawn) [Compound 60] | – | –
> 10000 | CCc1cc2ccc(C(C)(C#N)Cc3cccc(CNCCN4CCOCC4)c3)cc2[nH]c1=O (stereo not drawn) [Compound 61] | – | –
7940 | CCc1cc2ccc(C(C)(C#N)Cc3cccc(C(=O)NCCOC)c3)cc2[nH]c1=O (stereo not drawn) [Compound 62] | – | –
3160 | CCc1cc2ccc(C(C)(C#N)Cc3cccc(C(=O)N(C)C)c3)cc2[nH]c1=O (stereo not drawn) [Compound 63] | 3.16 | –
> 10000 | CCc1cc2ccc(C(C)(C#N)Cc3cccc(N4CCNCC4)c3)cc2[nH]c1=O (stereo not drawn) [Compound 64] | – | –
5010 | CCc1cc2ccc(C(C)(C#N)Cc3cccc(N4CCN(C)CC4)c3)cc2[nH]c1=O (stereo not drawn) [Compound 66] | – | tubulin polymerisation score (tubulin): 1 (a compound showing 0 to 50% inhibition at 20 μM is reported as score 1)
1260 | CCc1cc2ccc(C(C)(C#N)Cc3cccc(OCC4CC4)c3)cc2[nH]c1=O (stereo not drawn) [Compound 67] | 0.316 | –
7940 | CCc1cc2ccc(C(C)(C#N)Cc3cccc(OCCCN4CCOCC4)c3)cc2[nH]c1=O (stereo not drawn) [Compound 68] | – | –
7940 | CCc1cc2ccc(C(C)(C#N)Cc3cccc(OCCCN4CCN(C)CC4)c3)cc2[nH]c1=O (stereo not drawn) [Compound 69] | – | –
2510 | Cc1cc2ccc(C(C)(C#N)Cc3noc(-c4cccc(C(F)(F)F)c4)n3)cc2[nH]c1=O (stereo not drawn) [Compound 70] | 3.16 | –

IC50 (PC-3 cells) [nM] | SMILES | minimal effective concentration (PC3 cells) [µM] | also measured
2000 | Cc1cc2ccc(C(C)(C#N)Cc3cc4ccccc4s3)cc2[nH]c1=O (stereo not drawn) [Compound 71] | 1 | –
2000 | Cc1cc2ccc(C(C)(C#N)Cc3ccc(Cl)s3)cc2[nH]c1=O (stereo not drawn) [Compound 72] | 0.316 | –
2000 | Cc1cc2ccc(C(C)(C#N)Cc3ccc(C(F)(F)F)o3)cc2[nH]c1=O (stereo not drawn) [Compound 73] | 1 | –
1000 | Cc1cc2ccc(C(C)(C#N)Cc3cccc4cccnc34)cc2[nH]c1=O (stereo not drawn) [Compound 74] | 3.16 | –
200 | Cc1cc2ccc(C(C)(C#N)Cc3nc4ccccc4s3)cc2[nH]c1=O (stereo not drawn) [Compound 75] | 0.316 | tubulin polymerisation score (tubulin): 1 (a compound showing 0 to 50% inhibition at 20 μM is reported as score 1)
631 | Cc1cc2ccc(C(C)(C#N)Cc3ccccc3)cc2[nH]c1=O (stereo not drawn) [Compound 76] | 1 | –
1580 | CCc1cc2ccc(C(C)(C#N)Cc3ccc(OC)c(C#N)c3)cc2[nH]c1=O (stereo not drawn) [Compound 77] | 1 | –
398 | CCc1cc2ccc(C(C)(C#N)Cc3cc(C)ccc3C)cc2[nH]c1=O (stereo not drawn) [Compound 78] | 0.1 | –
794 | CCc1cc2ccc(C(C)(C#N)Cc3ccc(F)c(C)c3)cc2[nH]c1=O (stereo not drawn) [Compound 79] | 1 | –
398 | CCc1cc2ccc(C(C)(C#N)Cc3cc(Cl)ccc3OC)cc2[nH]c1=O (stereo not drawn) [Compound 80] | 0.1 | –
501 | CCc1cc2ccc(C(C)(C#N)Cc3cccc(Br)c3C)cc2[nH]c1=O (stereo not drawn) [Compound 81] | 0.316 | –
631 | CCc1cc2ccc(C(C)(C#N)Cc3ccc(Cl)c(C(F)(F)F)c3)cc2[nH]c1=O (stereo not drawn) [Compound 82] | 1 | –
2000 | CCc1cc2ccc(C(C)(C#N)Cc3ccc(C)c(F)c3F)cc2[nH]c1=O (stereo not drawn) [Compound 83] | 1 | –
3980 | CCc1cc2ccc(C(C)(C#N)Cc3c(C)cccc3C)cc2[nH]c1=O (stereo not drawn) [Compound 84] | 1 | –
1000 | CCc1cc2ccc(C(C)(C#N)Cc3nc4ccccc4o3)cc2[nH]c1=O (stereo not drawn) [Compound 85] | 0.316 | tubulin polymerisation score (tubulin): 1 (a compound showing 0 to 50% inhibition at 20 μM is reported as score 1)
6310 | CCc1cc2ccc(C(C)(C#N)Cc3csc(C)n3)cc2[nH]c1=O (stereo not drawn) [Compound 86] | 3.16 | –
1000 | CCc1cc2ccc(C(C)(C#N)Cc3ccc4nccnc4c3)cc2[nH]c1=O (stereo not drawn) [Compound 87] | 3.16 | –
10000 | CCc1cc2ccc(C(C)(C#N)Cc3c(C)c(C)cc(C)c3C)cc2[nH]c1=O (stereo not drawn) [Compound 88] | – | –
> 10000 | CCc1cc2ccc(C(C)(C#N)Cc3c(C)c(C)c(C)c(C)c3C)cc2[nH]c1=O (stereo not drawn) [Compound 89] | – | –

IC50 (PC-3 cells) [nM] | SMILES | minimal effective concentration (PC3 cells) [µM] | also measured
– | CCc1cc2ccc(C(C)(C#N)Cc3cc(Cl)cc4c3OCOC4)cc2[nH]c1=O (stereo not drawn) [Compound 90] | 1 | PC3 antiproliferative activity pIC50 (PC-3 cells): 5.8
– | CCc1cc2ccc(C(C)(C#N)Cc3cc(Cl)cc4c3OCOC4)cc2[nH]c1=O (stereo not drawn) [Compound 92] | – | EB1 pLAC (PC3 cells): 6; PC3 antiproliferative activity pIC50 (PC-3 cells): 5.4
10000 | CCc1cc2ccc(C(C)(C#N)Cc3nncn3C)cc2[nH]c1=O (stereo not drawn) [Compound 93] | – | –
> 10000 | CCc1cc2ccc(C(C)(C#N)Cc3cccc4nnn(C)c34)cc2[nH]c1=O (stereo not drawn) [Compound 94] | – | –
631 | CCc1cc2ccc(C(C)(C#N)Cc3nn(C)c4ccccc34)cc2[nH]c1=O (stereo not drawn) [Compound 95] | – | tubulin polymerisation score (tubulin): 2
> 10000 | CCc1cc2ccc(C(C)(C#N)Cc3cn4ccccc4n3)cc2[nH]c1=O (stereo not drawn) [Compound 96] | – | tubulin polymerisation score (tubulin): 1 (a compound showing 0 to 50% inhibition at 20 μM is reported as score 1)
> 10000 | CCc1cc2ccc(C(C)(C#N)Cc3cccnc3)cc2[nH]c1=O (stereo not drawn) [Compound 97] | – | –
> 10000 | CCc1cc2ccc(C(C)(C#N)Cc3ccncc3)cc2[nH]c1=O (stereo not drawn) [Compound 98] | – | tubulin polymerisation score (tubulin): 1 (a compound showing 0 to 50% inhibition at 20 μM is reported as score 1)
398 | CCc1cc2ccc(C(C)(C#N)Cc3cc(Cl)ccc3Cl)cc2[nH]c1=O (stereo not drawn) [Compound 99] | 0.1 | tubulin polymerisation score (tubulin): 3 (a compound showing more than 50% inhibition at 5 μM is reported as score 3)
3160 | CCc1cc2ccc(C(C)(C#N)Cc3ccccc3C#N)cc2[nH]c1=O (stereo not drawn) [Compound 101] | 1 | –
1000 | CCc1cc2ccc(C(C)(C#N)Cc3ccccc3OC(F)(F)F)cc2[nH]c1=O (stereo not drawn) [Compound 102] | 3.16 | –
631 | CCc1cc2ccc(C(C)(C#N)Cc3ccccc3C(F)(F)F)cc2[nH]c1=O (stereo not drawn) [Compound 103] | 0.316 | –
– | CCc1cc2ccc(C(C)(C#N)Cc3ccc(F)c(C#N)c3)cc2[nH]c1=O (stereo not drawn) [Compound 267] | 0.1 | tubulin polymerisation score (tubulin): 2; IC50 (PC-3 cells; Alamar Blue): 501 nM
– | CCc1cc2ccc(C(C)(C#N)CCOc3ccccc3C#N)cc2[nH]c1=O (stereo not drawn) [Compound 276] | – | tubulin polymerisation score (tubulin): 1 (a compound showing 0 to 50% inhibition at 20 μM is reported as score 1); IC50 (PC-3 cells; Alamar Blue): 2510 nM
– | CCc1cc2ccc(C(C)(C#N)CCOc3cc(Cl)c(Cl)cc3Cl)cc2[nH]c1=O (stereo not drawn) [Compound 277] | – | tubulin polymerisation score (tubulin): 2; IC50 (PC-3 cells; Alamar Blue): 501 nM
– | CCc1cc2ccc(C(C)(C#N)CCOc3ccccc3F)cc2[nH]c1=O (stereo not drawn) [Compound 278] | 1 | IC50 (PC-3 cells; Alamar Blue): 2000 nM
– | CCc1cc2ccc(C(C)(C#N)CCOc3ccc4c(c3)OCO4)cc2[nH]c1=O (stereo not drawn) [Compound 279] | 1 | IC50 (PC-3 cells; Alamar Blue): 1580 nM
– | CCc1cc2ccc(C(C)(C#N)Cc3cc(OC)cc(OC)c3)cc2[nH]c1=O (stereo not drawn) [Compound 332] | 0.316 | IC50 (PC-3 cells; Alamar Blue): 251 nM

SMILES | IC50 (PC-3 cells) [nM] | minimal effective concentration (PC3 cells) [µM] | also measured
CCc1cc2ccc(C(C)(C#N)Cc3cc4c(cc3Cl)OCO4)cc2[nH]c1=O (stereo not drawn) [Compound 91] | 398 | 0.1 | –
